Results reported in paper PMC9671962 (Communications Biology, 2022).
Values joined by “and” are separate entries in the source; they are usually repeats but may differ in a detail not shown here. Equal entries are not always repeated.

Tests used:
[1] = test system: NB-1643x; assay: Pre-clinical efficacy study, NB-1643x PDX; assay type: in vivo; conditions: 36 MBq/kg/fraction x 4 fractions, single mouse
Description: Patient demographics and genetic characteristics are listed in (Supplementary Tables 1, 2)[17]. The maximum tolerated dose (MTD) was determined to be 36 MBq/kg administered by intra-peritoneal injection twice weekly for a total of 4 dose fractions and this fractionated regimen was used in all studies (Supplementary Fig. 1)[18],[19]. […] Nine of 11 PDX models were MYCN amplified (Fig. 1b), which is a hallmark of high-risk neuroblastoma. Tumor response was measured as the maximum percent decrease in tumor volume after treatment and event-free survival (EFS) was measured by the area over the curve method with tumor events pre-defined by tumor growth exceeding 2 cm[3],[18].
The use of 2 mice per arm was based on the previously reported statistical analysis. […] Two additional dose levels of 12, and 24 MBq/kg/fraction were assessed in a subset of models and were administered as stated above. […] Tumors were measured using a digital caliper at the initiation of the study and two times per week during the treatment period. Tumor volumes were calculated as volume = ((diameter^1/2 + diameter^2/2)^3∗0.5236)/1000. Weights were obtained twice weekly and mice were monitored daily for signs of toxicity. […] Tumor response was assessed by best response defined as greatest reduction in tumor volume following the last dose and is presented as percent change in tumor volume. […]

[2] = test system: marrow progenitor cells (GEMM, GM); assay: Marrow toxicity by marrow progenitor colony formation assay; assay type: in vivo, CB57/BL6 mice
Description: (§1) Toxicity studies were done in nontumor bearing CB-17 SCID mice (Taconic Biosciences). […] Each arm had n = 10 mice (5 male, 5 female mice). […] The vehicle group received an equal volume of saline (placebo). Weights were obtained twice weekly and mice were monitored daily for signs of toxicity. […] On target hematological and marrow toxicity which was evaluated by complete blood counts and marrow colony formation assay. An additional study was performed under identical conditions to evaluate additive dose effects. […] Each treatment group was composed of equal numbers of male and female mice to rule out gender-specific effects (n = 4 per treatment group per time point). Mice were followed for signs of acute toxicity for 2 weeks and 4 weeks before euthanasia. An additional group (n = 4) treated at 36 MBq/kg was euthanized after 72 h to assess early signs of toxicity by colony formation assays. This time course was chosen to best capture the nadir of bone marrow suppression. After euthanasia, blood was collected and femurs were dissected and processed for histopathology and bone marrow evaluation.
After euthanasia, mouse hind limbs were dissected as previously described for bone and marrow isolation. The other hind limb was processed for bone marrow via centrifugation. Bone marrow pellets were resuspended in 1 X RBC Lysis Buffer (BioLegend, San Diego, CA) and rocked on a tilt-table for 5 minutes. Bone marrow cell pellet was isolated by centrifugation at 13,000 RPM on a tabletop centrifuge for 1 minute. Cells were resuspended in IMDM with 2% FBS (Gibco, ThermoFisher Scientific, Grand Island, New York) and counted on a Countess II Automated Cell Counter (ThermoFisher Scientific, Grand Island, NY).
Colony formation assays were performed per manufacturer’s protocol. In brief, 1.8 ×10^5 bone marrow cells suspended in 300 µL IMDM with 2% FBS were combined with 3 mL of Mouse Methylcellulose Complete Media (R&D Systems Inc, Minneapolis, MN). Gel mixture was syringe-pipetted in duplicate to lids of 6 cm culture dishes and housed with a 6 cm sterile water dish within a 25 cm culture dish. Cultures were incubated at 37 °C for 8 days prior to analysis on a microscope. Colonies were counted by one individual per manufacturer’s recommended protocol. Of note, at least 30 cells were required to call a colony positive.

[3] = test system: platelets, white blood cells, lymphocytes, neutrophils; assay: Hematological toxicity by complete blood counts; assay type: in vivo, CB-17 SCID mice; design: Neutrophils / Lymphocytes / WBC: unit not given here; conditions: for Lymphocytes / Neutrophils / Platelets / WBC: 72 hours post-treatment, single mouse
Description: as §1
Animals were monitored weekly for weight and daily for signs of distress until the time of euthanasia. […] Mice were anesthetized with mixed inhalation isoflurane/oxygen under a nosecone. Terminal cardiac puncture was performed and peripheral blood was transferred to K2EDTA BD Microtainer tubes (BD, San Antonio, TX). Sample volume injected was 20 µL and was pre-specified using the mouse protocol on the instrument.

[4] = 4 wk after 2 dose fractions at 36 MBq/kg/fraction
[5] = 36 MBq/kg x 4 dose fractions, 72 hours post-treatment, replicate
[6] = 48 MBq/kg x 4 dose fractions, 72 hours post-treatment, replicate
[7] = 60 MBq/kg x 4 dose fractions, 72 hours post-treatment, replicate
[8] = dose escalation 36, 48, 60 MBq/kg x 4 fractions

Question: For `O=C1NCCn2c(-c3ccc([211At])cc3)nc3cccc1c32` [[^211At]PTT, Astatine-211-parthanatine], which “EFS by AOC method” value [1] is on record?
Answer: 90.5 days and 76.6 days and 90.5782 days and 76.6342 days

Question: What about the “Tumor response (% growth from study initiation at ~ 200 mm3)” value [1] of the same molecule?
Answer: -95.4545% and -100%

Question: What about the “time by which marrow recovery stabilized, GEMM and GM progenitor cells” value ([2]; 3 dose fractions at 36 MBq/kg) of the same molecule?
Answer: ≤ 2 weeks

Question: What about the “GEMM (CFU)” value [2, 4] of the same molecule?
Answer: 4 CFU and 7.5 CFU and 6 CFU and 5 CFU

Question: And the “GM (CFU)” value [2, 4]?
Answer: 22 CFU and 36.5 CFU and 33 CFU and 24 CFU and 38 CFU

Question: What about the “GEMM (CFU)” value [2, 5] of the same molecule?
Answer: 7 CFU and 3 CFU and 2 CFU and 8 CFU and 14 CFU and 5 CFU and 9 CFU

Question: What about the “GM (CFU)” value [2, 5] of the same molecule?
Answer: 15 CFU and 10 CFU and 23 CFU and 13 CFU and 9 CFU

Question: And the “GEMM (CFU)” value [2, 6]?
Answer: 12 CFU and 5 CFU and 7 CFU and 3 CFU and 6 CFU

Question: And the “GM (CFU)” value [2, 6]?
Answer: 1 CFU and 5 CFU and 2 CFU and 12 CFU and 6 CFU and 7 CFU

Question: And the “GEMM (CFU)” value [2, 7]?
Answer: 2 CFU and 3 CFU and 8 CFU and 7 CFU and 6 CFU and 4 CFU

Question: And the “GM (CFU)” value [2, 7]?
Answer: 5 CFU and 8 CFU and 7 CFU and 4 CFU

Question: And the “GEMM (CFU)” value ([2]; 72 hrs after 2 dose fractions at 36 MBq/kg/fraction)?
Answer: 4 CFU and 6 CFU and 3 CFU and 5 CFU and 4.5 CFU

Question: What about the “colony formation of early marrow progenitor cells (GEMM)” value [2, 8] of the same molecule?
Answer: reduced only at the highest dose level evaluated (60 MBq/kg)

Question: And the “colony formation of granulocyte and megakaryocyte progenitors” value [2, 8]?
Answer: reduction in colony formation at all dose levels evaluated

Question: And the “time of full recovery of colony formation” value ([2]; post treatment, 3 dose fractions at 36 MBq/kg)?
Answer: 4 weeks

Question: And the thrombocytopenia ([3]; 3 or less dose fractions at the 36 MBq/kg dose level)?
Answer: did not result in thrombocytopenia

Question: And the Lymphocytes ([3]; 36 MBq/kg x 4 dose fractions)?
Answer: 0.28 and 0.26 and 0.38 and 0.27

Question: And the Neutrophils ([3]; 36 MBq/kg x 4 dose fractions)?
Answer: 0.42 and 0.22 and 0.16 and 0.34

Question: What about the Platelets ([3]; 36 MBq/kg x 4 dose fractions) of the same molecule?
Answer: 263 K/uL and 99 K/uL and 201 K/uL and 158 K/uL and 200 K/uL

Question: What about the WBC ([3]; 36 MBq/kg x 4 dose fractions) of the same molecule?
Answer: 0.78 and 0.26 and 0.58 and 0.62 and 0.7

Question: And the Lymphocytes ([3]; 48 MBq/kg x 4 dose fractions)?
Answer: 0.14 and 0.29 and 0.08 and 0.12 and 0.25

Question: What about the Neutrophils ([3]; 48 MBq/kg x 4 dose fractions) of the same molecule?
Answer: 0.24 and 0.18 and 0.26 and 0.09 and 0.13

Question: What about the Platelets ([3]; 48 MBq/kg x 4 dose fractions) of the same molecule?
Answer: 200 K/uL and 160 K/uL and 240 K/uL and 190 K/uL and 133 K/uL

Question: What about the WBC ([3]; 48 MBq/kg x 4 dose fractions) of the same molecule?
Answer: 0.5 and 0.6 and 0.36 and 0.26 and 0.48

Question: What about the Lymphocytes ([3]; 60 MBq/kg x 4 dose fractions) of the same molecule?
Answer: 0.28 and 0.29 and 0.41 and 0.11

Question: What about the Neutrophils ([3]; 60 MBq/kg x 4 dose fractions) of the same molecule?
Answer: 0.41 and 0.09 and 0.71 and 0.08

Question: And the Platelets ([3]; 60 MBq/kg x 4 dose fractions)?
Answer: 112 K/uL and 166 K/uL and 138 K/uL and 165 K/uL and 116 K/uL

Question: What about the WBC ([3]; 60 MBq/kg x 4 dose fractions) of the same molecule?
Answer: 0.14 and 0.76 and 0.44 and 1.42 and 0.22

Question: What about the “Hematological toxicity versus control” value ([3]; 72 hours after the final dose fraction, 36, 48, 60 MBq/kg/fraction x 4) of the same molecule?
Answer: significant reductions in platelets, white blood cells, and lymphocytes at all dose levels

Question: And the “time of full recovery from hematological and marrow toxicity” value ([3]; post-therapy at the MTD)?
Answer: ≤ 4 weeks

Question: And the “time of full recovery of peripheral blood counts” value ([3]; post-treatment, 2 or 3 dose fractions of 36 MBq/kg)?
Answer: 4 weeks

Question: What about the Effect on neutrophils ([3]; treatment with [^211At]PTT) of the same molecule?
Answer: largely unaffected
